According to article PMC5218480 (PLoS ONE, 2017):

Test system: MV-4-11 cells
Experiment: Gene expression microarray analysis (Affymetrix PrimeView) and GSEA
Assay type: cell-based, human
Set-up: RFU PODN (11730768_x_at) / Fold change /veh PODN (11730768_x_at) / RFU LINC00158 (11744669_a_at) / Fold change /veh LINC00158 (11744669_a_at) / RFU DUSP10 (11751237_a_at) / Fold change /veh DUSP10 (11751237_a_at) / RFU ID3 (11757404_x_at) / Fold change /veh ID3 (11757404_x_at) / RFU PLEKHG5 (11737974_s_at) / Fold change /veh PLEKHG5 (11737974_s_at) / RFU LRRC4B (11730491_at) / Fold change /veh LRRC4B (11730491_at) / RFU GIMAP4 (11747438_a_at) / Fold change /veh GIMAP4 (11747438_a_at) / RFU KRT8 (11758183_x_at) / Fold change /veh KRT8 (11758183_x_at) / RFU CNN1 (11734310_a_at) / Fold change /veh CNN1 (11734310_a_at) / RFU VPS37D (11726825_at) / Fold change /veh VPS37D (11726825_at) / RFU C10orf10 (11716522_x_at) / Fold change /veh C10orf10 (11716522_x_at) / RFU KIR2DL2 /// KIR2DL4 /// KIR2DL5A /// KIR2DL5B /// KIR2DS1 /// KIR2DS2 /// KIR2DS3 /// KIR2DS4 /// KIR3DL3 /// KIR3DL3 /// KIR3DS1 (11738374_at) / Fold change /veh KIR2DL2 /// KIR2DL4 /// KIR2DL5A /// KIR2DL5B /// KIR2DS1 /// KIR2DS2 /// KIR2DS3 /// KIR2DS4 /// KIR3DL3 /// KIR3DL3 /// KIR3DS1 (11738374_at) / RFU C1QL1 (11718748_at) / Fold change /veh C1QL1 (11718748_at) / RFU TMPRSS4 (11747572_a_at) / Fold change /veh TMPRSS4 (11747572_a_at) / RFU HAMP (11756126_x_at) / Fold change /veh HAMP (11756126_x_at) / RFU RNFT2 (11725882_a_at) / Fold change /veh RNFT2 (11725882_a_at) / RFU NR4A2 (11747474_a_at) / Fold change /veh NR4A2 (11747474_a_at) / RFU ABCC12 (11746883_a_at) / Fold change /veh ABCC12 (11746883_a_at) / RFU TMEM136 (11760407_x_at) / Fold change /veh TMEM136 (11760407_x_at) / RFU CLDN22 /// WWC2 (11732394_at) / Fold change /veh CLDN22 /// WWC2 (11732394_at) / RFU HLA-DPB1 (11760878_x_at) / Fold change /veh HLA-DPB1 (11760878_x_at) / RFU SPINT1 (11716480_a_at) / Fold change /veh SPINT1 (11716480_a_at) / RFU GAP43 (11754022_s_at) / Fold change /veh GAP43 (11754022_s_at) / RFU A4GNT (11735810_at) / Fold change /veh A4GNT (11735810_at) / RFU PRB3 (11715151_x_at) / Fold change /veh PRB3 (11715151_x_at) / RFU TUBB4B (11761932_at) / Fold change /veh TUBB4B (11761932_at) / RFU CAPN14 (11732068_a_at) / Fold change /veh CAPN14 (11732068_a_at) / RFU TMCC2 (11721928_a_at) / Fold change /veh TMCC2 (11721928_a_at) / RFU IRGQ (11745062_a_at) / Fold change /veh IRGQ (11745062_a_at) / RFU FAM174B (11720279_a_at) / Fold change /veh FAM174B (11720279_a_at) / RFU TMPRSS4 (11748680_a_at) / Fold change /veh TMPRSS4 (11748680_a_at) / RFU FAM212B (11763350_a_at) / Fold change /veh FAM212B (11763350_a_at) / RFU PLEKHG5 (11743358_a_at) / Fold change /veh PLEKHG5 (11743358_a_at) / RFU ZSCAN30 (11745921_a_at) / Fold change /veh ZSCAN30 (11745921_a_at) / RFU CMKLR1 (11741424_a_at) / Fold change /veh CMKLR1 (11741424_a_at) / RFU LOC101060620 /// MAPK8IP1 (11723275_at) / Fold change /veh LOC101060620 /// MAPK8IP1 (11723275_at) / RFU SPTSSB (11747773_x_at) / Fold change /veh SPTSSB (11747773_x_at) / RFU PRSS12 (11739890_at) / Fold change /veh PRSS12 (11739890_at) / RFU BIN1 (11741810_x_at) / Fold change /veh BIN1 (11741810_x_at) / RFU WNT11 (11732464_a_at) / Fold change /veh WNT11 (11732464_a_at) / RFU C10orf10 (11716521_a_at) / Fold change /veh C10orf10 (11716521_a_at) / RFU C5orf56 (11738089_at) / Fold change /veh C5orf56 (11738089_at) / RFU CYB561 (11721691_x_at) / Fold change /veh CYB561 (11721691_x_at) / RFU ANKRD19P (11752326_a_at) / Fold change /veh ANKRD19P (11752326_a_at) / RFU OR2T12 /// OR2T33 /// OR2T8 (11738714_s_at) / Fold change /veh OR2T12 /// OR2T33 /// OR2T8 (11738714_s_at) / RFU VCAN (11748164_a_at) / Fold change /veh VCAN (11748164_a_at) / RFU JSRP1 (11732532_at) / Fold change /veh JSRP1 (11732532_at) / RFU KRTAP10-11 (11738290_x_at) / Fold change /veh KRTAP10-11 (11738290_x_at) / RFU MYO3A (11730013_a_at) / Fold change /veh MYO3A (11730013_a_at) / RFU EBF3 (11725865_a_at) / Fold change /veh EBF3 (11725865_a_at) / RFU CAMK2N1 (11719241_x_at) / Fold change /veh CAMK2N1 (11719241_x_at) / RFU C5orf56 (11738088_a_at) / Fold change /veh C5orf56 (11738088_a_at) / RFU OLFML3 (11715873_a_at) / Fold change /veh OLFML3 (11715873_a_at) / RFU LOC100653217 /// NTM (11731650_a_at) / Fold change /veh LOC100653217 /// NTM (11731650_a_at) / RFU MAPK11 (11762145_a_at) / Fold change /veh MAPK11 (11762145_a_at) / RFU FIZ1 (11724087_x_at) / Fold change /veh FIZ1 (11724087_x_at) / RFU OASL (11726364_x_at) / Fold change /veh OASL (11726364_x_at) / RFU SOX15 (11748057_x_at) / Fold change /veh SOX15 (11748057_x_at) / RFU CD79A (11719716_a_at) / Fold change /veh CD79A (11719716_a_at) / RFU HIST1H1D (11736915_at) / Fold change /veh HIST1H1D (11736915_at) / RFU CASKIN2 (11723855_a_at) / Fold change /veh CASKIN2 (11723855_a_at) / RFU LOC730098 (11760151_x_at) / Fold change /veh LOC730098 (11760151_x_at) / RFU OR4N2 (11742367_at) / Fold change /veh OR4N2 (11742367_at) / RFU PRRT2 (11749266_a_at) / Fold change /veh PRRT2 (11749266_a_at) / RFU SNX32 (11753110_a_at) / Fold change /veh SNX32 (11753110_a_at) / RFU CDHR5 (11726645_a_at) / Fold change /veh CDHR5 (11726645_a_at) / RFU RCAN1 (11760418_a_at) / Fold change /veh RCAN1 (11760418_a_at) / RFU FAM167A (11723789_a_at) / Fold change /veh FAM167A (11723789_a_at) / RFU FAM26E (11764081_at) / Fold change /veh FAM26E (11764081_at) / RFU ISYNA1 (11749810_s_at) / Fold change /veh ISYNA1 (11749810_s_at) / RFU ACY1 (11761880_at) / Fold change /veh ACY1 (11761880_at) / RFU 11764098_at / Fold change /veh 11764098_at / RFU SAMD14 (11745864_x_at) / Fold change /veh SAMD14 (11745864_x_at) / RFU NPB (11741838_a_at) / Fold change /veh NPB (11741838_a_at) / RFU TMPRSS6 (11731388_a_at) / Fold change /veh TMPRSS6 (11731388_a_at) / RFU KRTAP10-2 (11738614_at) / Fold change /veh KRTAP10-2 (11738614_at) / RFU ARHGAP8 /// PRR5-ARHGAP8 (11727945_x_at) / Fold change /veh ARHGAP8 /// PRR5-ARHGAP8 (11727945_x_at) / RFU KRTAP5-7 /// NADSYN1 (11734609_at) / Fold change /veh KRTAP5-7 /// NADSYN1 (11734609_at) / RFU RASL12 (11751679_a_at) / Fold change /veh RASL12 (11751679_a_at) / RFU CDKN2B (11736163_a_at) / Fold change /veh CDKN2B (11736163_a_at) / RFU PRF1 (11729649_at) / Fold change /veh PRF1 (11729649_at) / RFU, ZNF638 /// ZNF638-IT1 / Fold change vs veh, ZNF638 /// ZNF638-IT1 / RFU, PANK3 / Fold change vs veh, PANK3 / RFU, SH3YL1 / Fold change vs veh, SH3YL1 / RFU, ZEB2 / Fold change vs veh, ZEB2 / RFU, NRIP1 / Fold change vs veh, NRIP1 / RFU, PTTG1IP / Fold change vs veh, PTTG1IP / RFU, CAPN2 / Fold change vs veh, CAPN2 / RFU, MED14 / Fold change vs veh, MED14 / RFU, SNORA58 / Fold change vs veh, SNORA58 / RFU, C1orf63 / Fold change vs veh, C1orf63 / RFU, LRRFIP1 / Fold change vs veh, LRRFIP1 / RFU, NDUFAF7 / Fold change vs veh, NDUFAF7 / RFU, SLC12A2 / Fold change vs veh, SLC12A2 / RFU, IBTK / Fold change vs veh, IBTK / RFU, ESF1 / Fold change vs veh, ESF1 / Fold change vs veh, TMEM50B / RFU, TAOK1 / Fold change vs veh, TAOK1 / RFU, ACBD3 / Fold change vs veh, ACBD3 / RFU, TMA16 / Fold change vs veh, TMA16 / RFU, RWDD3 / Fold change vs veh, RWDD3 / RFU, BCAT1 / Fold change vs veh, BCAT1 / RFU, EDEM3 / Fold change vs veh, EDEM3 / RFU, TMEM33 / Fold change vs veh, TMEM33 / RFU, WDR75 / Fold change vs veh, WDR75 / RFU, AHCTF1 / Fold change vs veh, AHCTF1 / RFU, TFRC / Fold change vs veh, TFRC / RFU, ZDHHC17 / Fold change vs veh, ZDHHC17 / RFU, NOM1 / Fold change vs veh, NOM1 / RFU, ARL8B / Fold change vs veh, ARL8B / RFU, ZBTB11 / Fold change vs veh, ZBTB11 / RFU, TAMM41 / Fold change vs veh, TAMM41 / RFU, KIAA1704 /// LOC100996395 / Fold change vs veh, KIAA1704 /// LOC100996395 / RFU, ING1 / Fold change vs veh, ING1 / RFU, TRMT61B / Fold change vs veh, TRMT61B / RFU, FUBP3 / Fold change vs veh, FUBP3 / RFU, TP53 / Fold change vs veh, TP53 / RFU, TNKS2 / Fold change vs veh, TNKS2 / RFU, ZFP14 / Fold change vs veh, ZFP14 / RFU, ACTR2 / Fold change vs veh, ACTR2 / RFU, PPP3R1 / Fold change vs veh, PPP3R1 / RFU, PIK3R1 / Fold change vs veh, PIK3R1 / RFU, HNRNPA1 / Fold change vs veh, HNRNPA1 / RFU, RNF170 / Fold change vs veh, RNF170 / RFU, ZNF28 / Fold change vs veh, ZNF28 / RFU, RNGTT / Fold change vs veh, RNGTT / RFU, OGT / Fold change vs veh, OGT / RFU, BRD1 / Fold change vs veh, BRD1 / RFU, MARS / Fold change vs veh, MARS / RFU, ZNF655 / Fold change vs veh, ZNF655 / RFU, FAHD1 / Fold change vs veh, FAHD1 / RFU, BDP1 / Fold change vs veh, BDP1 / RFU, LRRCC1 / Fold change vs veh, LRRCC1 / RFU, ARID1A / Fold change vs veh, ARID1A / RFU, ZNF146 / Fold change vs veh, ZNF146 / RFU, ZNF330 / Fold change vs veh, ZNF330 / RFU, GPN3 / Fold change vs veh, GPN3 / RFU, C9orf123 / Fold change vs veh, C9orf123 / RFU, N4BP2L2 / Fold change vs veh, N4BP2L2 / RFU, ARFIP1 / Fold change vs veh, ARFIP1 / RFU, FAM179B / Fold change vs veh, FAM179B / RFU, BCL10 / Fold change vs veh, BCL10 / RFU, UHRF1BP1L / Fold change vs veh, UHRF1BP1L / RFU, BET1 / Fold change vs veh, BET1 / RFU, CNOT2 / Fold change vs veh, CNOT2 / RFU, ZNF268 / Fold change vs veh, ZNF268 / Fold change vs veh, ZNF507 / RFU, DGCR2 / Fold change vs veh, DGCR2 / RFU, WDSUB1 / Fold change vs veh, WDSUB1 / Fold change vs veh, HSP90B1 /// MIR3652 / RFU, ADSS / Fold change vs veh, ADSS / RFU, GK / Fold change vs veh, GK / RFU, ZNF148 / Fold change vs veh, ZNF148 / RFU, TAF9 / Fold change vs veh, TAF9 / RFU, SLC1A5 / Fold change vs veh, SLC1A5 / RFU, SLMO2 / Fold change vs veh, SLMO2 / RFU, ABCC4 / Fold change vs veh, ABCC4 / RFU, LOC101060439 /// RAP1B / Fold change vs veh, LOC101060439 /// RAP1B / RFU, RFX7 / Fold change vs veh, RFX7 / RFU, GTPBP10 / Fold change vs veh, GTPBP10 / RFU, CNEP1R1 / Fold change vs veh, CNEP1R1 / RFU, BIVM-ERCC5 /// ERCC5 / Fold change vs veh, BIVM-ERCC5 /// ERCC5 / RFU, ILF3 / Fold change vs veh, ILF3 / RFU 11762660_at / Fold change /veh 11762660_at / RFU VCAN (11757783_s_at) / Fold change /veh VCAN (11757783_s_at) / RFU DDX43 (11728927_at) / Fold change /veh DDX43 (11728927_at) / RFU KRT8 (11758188_x_at) / Fold change /veh KRT8 (11758188_x_at) / RFU NKD1 (11759106_at) / Fold change /veh NKD1 (11759106_at) / RFU SRD5A1 (11742802_a_at) / Fold change /veh SRD5A1 (11742802_a_at) / RFU TPSAB1 /// TPSB2 (11721975_s_at) / Fold change /veh TPSAB1 /// TPSB2 (11721975_s_at) / RFU GSTM3 (11746129_a_at) / Fold change /veh GSTM3 (11746129_a_at) / RFU IL23R (11737362_x_at) / Fold change /veh IL23R (11737362_x_at) / RFU TMEM51 (11727254_a_at) / Fold change /veh TMEM51 (11727254_a_at) / RFU PIWIL2 (11732686_x_at) / Fold change /veh PIWIL2 (11732686_x_at) / RFU ORM1 (11744905_x_at) / Fold change /veh ORM1 (11744905_x_at) / RFU CCDC152 (11743942_at) / Fold change /veh CCDC152 (11743942_at) / RFU ECM1 (11717891_a_at) / Fold change /veh ECM1 (11717891_a_at) / RFU IL23R (11748794_a_at) / Fold change /veh IL23R (11748794_a_at) / RFU TNFAIP8L3 (11732012_x_at) / Fold change /veh TNFAIP8L3 (11732012_x_at) / RFU MBOAT4 (11741988_at) / Fold change /veh MBOAT4 (11741988_at) / RFU 11764193_at / Fold change /veh 11764193_at / RFU TMEM53 (11763286_at) / Fold change /veh TMEM53 (11763286_at) / RFU MAGEB2 (11727129_at) / Fold change /veh MAGEB2 (11727129_at) / RFU TMEM200A (11744735_a_at) / Fold change /veh TMEM200A (11744735_a_at) / RFU CCDC152 (11751479_a_at) / Fold change /veh CCDC152 (11751479_a_at) / RFU FAM211A (11726209_a_at) / Fold change /veh FAM211A (11726209_a_at) / RFU RGS16 (11746705_a_at) / Fold change /veh RGS16 (11746705_a_at) / RFU VCAN (11755009_s_at) / Fold change /veh VCAN (11755009_s_at) / RFU RHOB (11743442_s_at) / Fold change /veh RHOB (11743442_s_at) / RFU RGS16 (11720943_a_at) / Fold change /veh RGS16 (11720943_a_at) / RFU RGS16 (11720944_at) / Fold change /veh RGS16 (11720944_at) / RFU, VPS4B / Fold change vs veh, VPS4B / RFU, CREB1 / Fold change vs veh, CREB1 / RFU, DNAJC13 / Fold change vs veh, DNAJC13 / RFU, GNAQ / Fold change vs veh, GNAQ / RFU, CDK5R1 / Fold change vs veh, CDK5R1 / RFU, ZRANB3 / Fold change vs veh, ZRANB3 / RFU, CUL4A / Fold change vs veh, CUL4A / RFU, CCNY / Fold change vs veh, CCNY / RFU, UFL1 / Fold change vs veh, UFL1 / RFU, COG3 / Fold change vs veh, COG3 / RFU, DIAPH2 / Fold change vs veh, DIAPH2 / RFU, SKA2 / Fold change vs veh, SKA2 / RFU, AFF3 / Fold change vs veh, AFF3 / RFU, LMF1 / Fold change vs veh, LMF1 / RFU, IPO11 / Fold change vs veh, IPO11 / RFU, DFFB / Fold change vs veh, DFFB / RFU, FOXP1 / Fold change vs veh, FOXP1 / RFU, CARD8 / Fold change vs veh, CARD8 / RFU, STRN3 / Fold change vs veh, STRN3 / RFU, ADK / Fold change vs veh, ADK / RFU, RASSF2 / Fold change vs veh, RASSF2 / RFU, WIPF1 / Fold change vs veh, WIPF1 / RFU, LARP1B / Fold change vs veh, LARP1B / RFU, RASA1 / Fold change vs veh, RASA1 / RFU, RB1 / Fold change vs veh, RB1 / RFU, PPFIA1 / Fold change vs veh, PPFIA1 / RFU, MAT2A / Fold change vs veh, MAT2A / RFU, CCT5 / Fold change vs veh, CCT5 / RFU, WDR92 / Fold change vs veh, WDR92 / RFU, CUX1 / Fold change vs veh, CUX1 / RFU, TTC7A / Fold change vs veh, TTC7A / RFU, TMEM135 / Fold change vs veh, TMEM135 / RFU, DEPTOR / Fold change vs veh, DEPTOR / RFU, CPM / Fold change vs veh, CPM / RFU, DNAJB6 / Fold change vs veh, DNAJB6 / RFU, CACNA2D3 / Fold change vs veh, CACNA2D3 / RFU, DTX4 / Fold change vs veh, DTX4 / RFU, TFCP2 / Fold change vs veh, TFCP2 / RFU, GMCL1 /// GMCL1P1 / Fold change vs veh, GMCL1 /// GMCL1P1 / RFU, AEBP2 / Fold change vs veh, AEBP2 / RFU, SNHG1 /// SNORD22 /// SNORD25 /// SNORD26 /// SNORD27 /// SNORD28 /// SNORD29 /// SNORD31 / Fold change vs veh, SNHG1 /// SNORD22 /// SNORD25 /// SNORD26 /// SNORD27 /// SNORD28 /// SNORD29 /// SNORD31 / Fold change (Aza/veh), C12orf56 (ProbeSet 11735607_a_at) / Fold change (ACY-1035/veh), C12orf56 (ProbeSet 11735607_a_at) / Fold change (Aza/veh), FGFR1OP (ProbeSet 11751329_s_at) / Fold change (ACY-1035/veh), FGFR1OP (ProbeSet 11751329_s_at) / Fold change (Aza/veh), VPS36 (ProbeSet 11739960_a_at) / Fold change (ACY-1035/veh), VPS36 (ProbeSet 11739960_a_at) / RFU SYPL1 (11715823_x_at) / Fold change /veh SYPL1 (11715823_x_at) / RFU IGFBP7 (11715501_s_at) / Fold change /veh IGFBP7 (11715501_s_at) / RFU REEP3 (11722064_at) / Fold change /veh REEP3 (11722064_at) / RFU IGLL1 (11728026_x_at) / Fold change /veh IGLL1 (11728026_x_at): dose or concentration left out as unconfirmed
Details: MV-4-11 cells, 48 hours

## Nc1ncn([C@@H]2O[C@H](CO)[C@@H](O)[C@H]2O)c(=O)n1 [azacitidine]
  RFU OLFML3 (11715873_a_at): 10.99 RFU
